# Results: patent US20180291285A1 (Clariant International, Ltd., priority 2015, published 2018)
# Assay: Bioaccumulation log Pow (slow stirring method)
# Text: As mentioned before. The environmental acceptability of these esterquat surfactant compounds is of essential importance for emulsion breaking operations in oil production processes.
substance,measurement,value
Dioleic acid triethanolamine esterquat [Di-oleic acid triethanolamine esterquat],bioaccumulation: log Pow,0.73
